Source: patent US7034035B2, “Fungicidal mono-, bi-, and tri-cycloheteroalkyl amides and their compositions, methods of use and preparation” (priority 1999, dated 2006)

What was measured:
Ustilago maydis (USTIMA) = assay: microbe, parasite or virus in culture; format: cell-based
[1] = system: Rhizoctonia solani (RHIZSO); assay: microbe, parasite or virus in culture; format: cell-based
Further: test concentration or dose not given here.

Compound	USTIMA in vitro Growth Inhibition (Ustilago maydis (USTIMA))	RHIZSO in vitro Growth Inhibition [1]
COc1ccnc(C(=O)NC/C=C(\C)CCC=C(C)C)c1O [Compound 242]	+ (key: +: at least 80% growth inhibition; −: less than 80% growth inhibition)	+ (key: +: at least 80% growth inhibition; −: less than 80% growth inhibition)
COc1ccnc(C(=O)NCCCc2cccnc2)c1O [Compound 243]	− (key: +: at least 80% growth inhibition; −: less than 80% growth inhibition)	− (key: +: at least 80% growth inhibition; −: less than 80% growth inhibition)
COc1ccnc(C(=O)NCC(C)(C)Sc2ncc(C(F)(F)F)cc2Cl)c1O [Compound 244]	− (key: +: at least 80% growth inhibition; −: less than 80% growth inhibition)	− (key: +: at least 80% growth inhibition; −: less than 80% growth inhibition)
COc1ccnc(C(=O)NCC2COCCOCCOCCOCCO2)c1O (stereo not shown) [Compound 245]	− (key: +: at least 80% growth inhibition; −: less than 80% growth inhibition)	− (key: +: at least 80% growth inhibition; −: less than 80% growth inhibition)
COc1ccnc(C(=O)NC(C)c2ccc(C(F)(F)F)cc2)c1O (stereo not shown) [Compound 247]	− (key: +: at least 80% growth inhibition; −: less than 80% growth inhibition)	− (key: +: at least 80% growth inhibition; −: less than 80% growth inhibition)
COc1ccnc(C(=O)NC2CCCC2O)c1O (stereo not shown) [Compound 248]	− (key: +: at least 80% growth inhibition; −: less than 80% growth inhibition)	− (key: +: at least 80% growth inhibition; −: less than 80% growth inhibition)
COc1ccnc(C(=O)NC2CCCC2=O)c1O (stereo not shown) [Compound 249]	− (key: +: at least 80% growth inhibition; −: less than 80% growth inhibition)	− (key: +: at least 80% growth inhibition; −: less than 80% growth inhibition)
COc1ccnc(C(=O)NC2CC(C)(C)CC(C)(C)C2)c1O [Compound 250]	− (key: +: at least 80% growth inhibition; −: less than 80% growth inhibition)	− (key: +: at least 80% growth inhibition; −: less than 80% growth inhibition)
COc1ccnc(C(=O)NC2CC(C)(C)CC(C)(C3CC3)C2)c1O (stereo not shown) [Compound 252]	− (key: +: at least 80% growth inhibition; −: less than 80% growth inhibition)	+ (key: +: at least 80% growth inhibition; −: less than 80% growth inhibition)
CCCCC1(C)CC(NC(=O)c2nccc(OC)c2O)CC(C)(C)C1 (stereo not shown) [Compound 253]	− (key: +: at least 80% growth inhibition; −: less than 80% growth inhibition)	− (key: +: at least 80% growth inhibition; −: less than 80% growth inhibition)
CCCCC1(C)CCCC(NC(=O)c2nccc(OC)c2O)C1 (stereo not shown) [Compound 254]	− (key: +: at least 80% growth inhibition; −: less than 80% growth inhibition)	− (key: +: at least 80% growth inhibition; −: less than 80% growth inhibition)
COc1ccnc(C(=O)NC2CC(C(F)(F)F)CC(C(F)(F)F)C2)c1O (stereo not shown) [Compound 256]	− (key: +: at least 80% growth inhibition; −: less than 80% growth inhibition)	− (key: +: at least 80% growth inhibition; −: less than 80% growth inhibition)
COc1ccnc(C(=O)NC2CC(c3ccco3)CC(C)(C)C2)c1O (stereo not shown) [Compound 258]	− (key: +: at least 80% growth inhibition; −: less than 80% growth inhibition)	− (key: +: at least 80% growth inhibition; −: less than 80% growth inhibition)
COc1ccnc(C(=O)NC2C[C@H](C)C[C@H](c3ccccn3)C2)c1O (stereo partly shown) [Compound 259]	− (key: +: at least 80% growth inhibition; −: less than 80% growth inhibition)	− (key: +: at least 80% growth inhibition; −: less than 80% growth inhibition)
COc1ccnc(C(=O)NC2CC(C)(C)CC(C)(C(=O)c3ccccc3)C2)c1O (stereo not shown) [Compound 260]	− (key: +: at least 80% growth inhibition; −: less than 80% growth inhibition)	− (key: +: at least 80% growth inhibition; −: less than 80% growth inhibition)
COc1ccnc(C(=O)NC2CC(C)(C)CC(C)(C(=O)OCCC(C)(C)C)C2)c1O (stereo not shown) [Compound 261]	− (key: +: at least 80% growth inhibition; −: less than 80% growth inhibition)	− (key: +: at least 80% growth inhibition; −: less than 80% growth inhibition)
COc1ccnc(C(=O)N[C@H]2CC(C)(C)[C@H](O)C(C)(C)C2)c1O [Compound 264, trans-4-Hydroxy-3,3,5,5-Tetramethylpicolinamide]	− (key: +: at least 80% growth inhibition; −: less than 80% growth inhibition)	− (key: +: at least 80% growth inhibition; −: less than 80% growth inhibition)
COc1ccnc(C(=O)NC2CC(C)(C)C(OC)C(C)(C)C2)c1O (stereo not shown) [Compound 265]	− (key: +: at least 80% growth inhibition; −: less than 80% growth inhibition)	− (key: +: at least 80% growth inhibition; −: less than 80% growth inhibition)

Compound	USTIMA in vitro Growth Inhibition (Ustilago maydis (USTIMA))	RHIZSO in vitro Growth Inhibition [1]
COc1ccnc(C(=O)NC2CC(C)(C)C(=O)C(C)(C)C2)c1O [Compound 266]	− (key: +: at least 80% growth inhibition; −: less than 80% growth inhibition)	− (key: +: at least 80% growth inhibition; −: less than 80% growth inhibition)
COc1ccnc(C(=O)NC2CC(C)(C)C(OC(=O)CC(C)C)C(C)(C)C2)c1O (stereo not shown) [Compound 267]	+ (key: +: at least 80% growth inhibition; −: less than 80% growth inhibition)	− (key: +: at least 80% growth inhibition; −: less than 80% growth inhibition)
COc1ccnc(C(=O)NC2CC(C)(C)C(OC(=O)c3ccccc3)C(C)(C)C2)c1O (stereo not shown) [Compound 268]	− (key: +: at least 80% growth inhibition; −: less than 80% growth inhibition)	− (key: +: at least 80% growth inhibition; −: less than 80% growth inhibition)
COc1ccnc(C(=O)N[C@H]2CC[C@@H](Oc3ccc(C(F)(F)F)cc3)CC2)c1O [Compound 271]	+ (key: +: at least 80% growth inhibition; −: less than 80% growth inhibition)	+ (key: +: at least 80% growth inhibition; −: less than 80% growth inhibition)
COc1ccnc(C(=O)N[C@@H]2CCCC[C@H]2SC)c1O [Compound 273]	− (key: +: at least 80% growth inhibition; −: less than 80% growth inhibition)	− (key: +: at least 80% growth inhibition; −: less than 80% growth inhibition)
COc1ccnc(C(=O)NC2CCC(Sc3ccccc3)CC2)c1O (stereo not shown) [Compound 275]	− (key: +: at least 80% growth inhibition; −: less than 80% growth inhibition)	+ (key: +: at least 80% growth inhibition; −: less than 80% growth inhibition)
COc1ccnc(C(=O)NC2CC(C)(C)C=CC=C2C)c1O (stereo not shown) [Compound 278]	− (key: +: at least 80% growth inhibition; −: less than 80% growth inhibition)	− (key: +: at least 80% growth inhibition; −: less than 80% growth inhibition)
COc1ccnc(C(=O)NC2CC(C)(C)C=CC(C)C2C)c1O (stereo not shown) [Compound 279]	− (key: +: at least 80% growth inhibition; −: less than 80% growth inhibition)	− (key: +: at least 80% growth inhibition; −: less than 80% growth inhibition)
COc1ccnc(C(=O)NC2CC(C)(C)C3OC3[C@H](C)[C@H]2C)c1O (stereo partly shown) [Compound 280]	− (key: +: at least 80% growth inhibition; −: less than 80% growth inhibition)	− (key: +: at least 80% growth inhibition; −: less than 80% growth inhibition)
COc1ccnc(C(=O)NC2CC(C)(C)C(Cl)C(Cl)[C@H](C)[C@H]2C)c1O (stereo partly shown) [Compound 281]	− (key: +: at least 80% growth inhibition; −: less than 80% growth inhibition)	− (key: +: at least 80% growth inhibition; −: less than 80% growth inhibition)
COc1ccnc(C(=O)NC2CCCCCCC2)c1O [Compound 282]	− (key: +: at least 80% growth inhibition; −: less than 80% growth inhibition)	− (key: +: at least 80% growth inhibition; −: less than 80% growth inhibition)
COc1ccnc(C(=O)NC2c3ccccc3CC2(C)C)c1O (stereo not shown) [Compound 284]	− (key: +: at least 80% growth inhibition; −: less than 80% growth inhibition)	− (key: +: at least 80% growth inhibition; −: less than 80% growth inhibition)
COc1ccnc(C(=O)NC2CCc3ccccc3C2=O)c1O (stereo not shown) [Compound 285]	− (key: +: at least 80% growth inhibition; −: less than 80% growth inhibition)	+ (key: +: at least 80% growth inhibition; −: less than 80% growth inhibition)
COc1ccnc(C(=O)NC2CCC[C@H]3CC(CCC=C(C)C)=CC[C@@H]23)c1O (stereo partly shown) [Compound 286]	− (key: +: at least 80% growth inhibition; −: less than 80% growth inhibition)	+ (key: +: at least 80% growth inhibition; −: less than 80% growth inhibition)
COc1ccnc(C(=O)NC2CC3CCC2C3)c1O (stereo not shown) [Compound 287]	− (key: +: at least 80% growth inhibition; −: less than 80% growth inhibition)	+ (key: +: at least 80% growth inhibition; −: less than 80% growth inhibition)
COc1ccnc(C(=O)NC2C3(C)CCC(C3)C2(C)C)c1O (stereo not shown) [Compound 288]	− (key: +: at least 80% growth inhibition; −: less than 80% growth inhibition)	+ (key: +: at least 80% growth inhibition; −: less than 80% growth inhibition)
COc1ccnc(C(=O)NC2CCC[C@H]3[C@H]4CC[C@H](C4)[C@@H]23)c1O (stereo partly shown) [Compound 291]	− (key: +: at least 80% growth inhibition; −: less than 80% growth inhibition)	+ (key: +: at least 80% growth inhibition; −: less than 80% growth inhibition)
